Here are results for 16 compounds from patent EP4813991A1 (iLeadBMS Co., Ltd., priority 2023, dated 2025).

Test [1] has as its system MDA-MB-231 breast cancer cells. Briefly: Proliferation inhibitory activity assay against MDA-MB-231 breast cancer cells. Conditions: Homo sapiens, 72 hours, CellTiter Glo, relative IC50. The class given is cell-based. An outline of the steps:
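Cells grown in L-15 with 10% FBS at 37 °C, 0% CO2, then exposed next day to compounds at 9 concentrations (DMSO vehicle) for 72 h. Viability read by CellTiter Glo luminescence; relative IC50 from dose-response curve fit.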
For orientation: Cellular ATP, detected with luciferase, serves as a proxy for viable cell number.

The target of test [2] is T1, CDK12 (Homo sapiens, UniProt Q9NYV4). As to the kind of experiment: Cellular CDK12 inhibitory activity assay (Ser2 phosphorylation of RNA polymerase II subunit B1 CTD in MDA-MB-231 cells). It counts as cell-based. The arrangement: using MDA-MB-231 breast cancer cells; endogenous in cells; host or cells: MDA-MB-231. Conditions: MDA-MB-231 cells, 6 hours treatment; read-out: pRpbl CTD S2 IC50. A digest of the protocol:
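MDA-MB-231 cells in L-15 with 10 % FBS were treated with compound at 9 concentrations for 6 h at 37 °C, 0 % CO2. In-Cell Western read phospho-Ser2 and total RNA polymerase II CTD on a Li-COR Odyssey; IC50 from 4-parameter dose-response fit.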

For test [3], the target named is T1, CDK12. As to the kind of experiment: CDK12 kinase inhibitory activity assay (33P-ATP filter binding). Particulars: kinase reaction 120 minutes, 33P-gamma-ATP; read-out: CDK12 IC50. The class given is biochemical. An outline of the steps: (§1)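 Radiometric filter-binding read-out: after 20 min compound–enzyme/substrate pre-incubation across 9 concentrations, reaction started with ^33P-γ-ATP and run 120 min at room temperature. Filter-bound ^33P-substrate measured after 0.75 % phosphoric acid washes; remaining activity versus DMSO gives IC50.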

For test [4], the target named is CDK13 (Homo sapiens, UniProt Q14004). Briefly: CDK13 kinase inhibitory activity assay (33P-ATP filter binding). The class given is biochemical. Conditions: kinase reaction 120 minutes, 33P-gamma-ATP; read-out: CDK13 IC50. An outline of the steps:
as §1

CDK13, sequence (Q14004 whole entry, species assumed): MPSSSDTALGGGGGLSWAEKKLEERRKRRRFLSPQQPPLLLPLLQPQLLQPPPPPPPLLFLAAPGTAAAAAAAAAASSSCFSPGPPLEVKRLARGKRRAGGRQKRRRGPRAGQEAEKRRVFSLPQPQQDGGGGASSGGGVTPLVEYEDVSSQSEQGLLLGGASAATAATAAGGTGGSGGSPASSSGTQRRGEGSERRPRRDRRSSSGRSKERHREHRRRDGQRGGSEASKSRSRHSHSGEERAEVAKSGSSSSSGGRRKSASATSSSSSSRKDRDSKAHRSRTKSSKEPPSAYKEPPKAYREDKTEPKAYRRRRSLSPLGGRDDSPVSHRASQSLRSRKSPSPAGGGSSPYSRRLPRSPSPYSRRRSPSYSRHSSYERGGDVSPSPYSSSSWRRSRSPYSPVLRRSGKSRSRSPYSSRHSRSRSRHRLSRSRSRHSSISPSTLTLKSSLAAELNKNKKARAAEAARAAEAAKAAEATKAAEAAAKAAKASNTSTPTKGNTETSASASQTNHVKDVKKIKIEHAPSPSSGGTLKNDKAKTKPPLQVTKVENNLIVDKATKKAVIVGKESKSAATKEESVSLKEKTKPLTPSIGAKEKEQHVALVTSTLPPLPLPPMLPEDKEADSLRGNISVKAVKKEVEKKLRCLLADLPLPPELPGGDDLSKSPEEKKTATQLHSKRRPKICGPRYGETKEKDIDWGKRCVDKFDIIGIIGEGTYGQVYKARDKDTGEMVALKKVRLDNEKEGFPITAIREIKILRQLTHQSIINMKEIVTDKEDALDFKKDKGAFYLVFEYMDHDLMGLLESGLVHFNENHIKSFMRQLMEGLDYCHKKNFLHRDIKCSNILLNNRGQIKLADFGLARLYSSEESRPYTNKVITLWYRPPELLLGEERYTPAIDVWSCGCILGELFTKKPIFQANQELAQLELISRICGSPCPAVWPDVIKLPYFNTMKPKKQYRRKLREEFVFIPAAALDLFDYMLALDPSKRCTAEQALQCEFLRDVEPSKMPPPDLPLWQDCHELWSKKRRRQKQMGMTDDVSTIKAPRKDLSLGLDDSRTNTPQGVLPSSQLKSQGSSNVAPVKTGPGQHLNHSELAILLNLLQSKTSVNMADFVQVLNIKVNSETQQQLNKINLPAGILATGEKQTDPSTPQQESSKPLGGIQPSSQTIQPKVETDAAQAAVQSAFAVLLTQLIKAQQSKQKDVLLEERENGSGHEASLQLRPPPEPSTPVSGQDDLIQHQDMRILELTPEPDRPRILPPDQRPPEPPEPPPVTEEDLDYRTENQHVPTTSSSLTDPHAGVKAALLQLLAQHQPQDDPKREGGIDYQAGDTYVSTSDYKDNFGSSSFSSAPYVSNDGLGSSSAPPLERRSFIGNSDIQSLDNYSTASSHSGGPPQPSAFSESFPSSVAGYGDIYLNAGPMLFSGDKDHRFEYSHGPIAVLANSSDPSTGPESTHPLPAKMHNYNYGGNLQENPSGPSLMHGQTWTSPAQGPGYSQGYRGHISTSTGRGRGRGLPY
CDK13, sequence (O75909 whole entry partner, species assumed): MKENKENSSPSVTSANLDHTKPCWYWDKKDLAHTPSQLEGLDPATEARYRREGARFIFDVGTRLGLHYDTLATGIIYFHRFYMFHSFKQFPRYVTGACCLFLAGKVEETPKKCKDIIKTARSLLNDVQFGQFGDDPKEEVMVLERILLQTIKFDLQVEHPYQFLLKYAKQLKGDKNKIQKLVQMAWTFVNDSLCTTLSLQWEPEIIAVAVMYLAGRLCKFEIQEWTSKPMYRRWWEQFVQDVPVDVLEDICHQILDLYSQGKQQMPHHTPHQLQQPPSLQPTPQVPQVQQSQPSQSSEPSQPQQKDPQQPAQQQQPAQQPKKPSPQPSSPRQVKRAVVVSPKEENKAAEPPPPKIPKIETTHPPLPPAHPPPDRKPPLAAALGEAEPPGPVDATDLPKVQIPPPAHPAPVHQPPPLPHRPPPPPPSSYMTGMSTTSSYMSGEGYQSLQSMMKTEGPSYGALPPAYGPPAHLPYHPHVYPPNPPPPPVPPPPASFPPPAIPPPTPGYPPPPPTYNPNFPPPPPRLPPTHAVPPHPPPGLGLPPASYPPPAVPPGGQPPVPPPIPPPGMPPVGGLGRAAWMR
T1 sequence (Q9NYV4 whole entry, species assumed): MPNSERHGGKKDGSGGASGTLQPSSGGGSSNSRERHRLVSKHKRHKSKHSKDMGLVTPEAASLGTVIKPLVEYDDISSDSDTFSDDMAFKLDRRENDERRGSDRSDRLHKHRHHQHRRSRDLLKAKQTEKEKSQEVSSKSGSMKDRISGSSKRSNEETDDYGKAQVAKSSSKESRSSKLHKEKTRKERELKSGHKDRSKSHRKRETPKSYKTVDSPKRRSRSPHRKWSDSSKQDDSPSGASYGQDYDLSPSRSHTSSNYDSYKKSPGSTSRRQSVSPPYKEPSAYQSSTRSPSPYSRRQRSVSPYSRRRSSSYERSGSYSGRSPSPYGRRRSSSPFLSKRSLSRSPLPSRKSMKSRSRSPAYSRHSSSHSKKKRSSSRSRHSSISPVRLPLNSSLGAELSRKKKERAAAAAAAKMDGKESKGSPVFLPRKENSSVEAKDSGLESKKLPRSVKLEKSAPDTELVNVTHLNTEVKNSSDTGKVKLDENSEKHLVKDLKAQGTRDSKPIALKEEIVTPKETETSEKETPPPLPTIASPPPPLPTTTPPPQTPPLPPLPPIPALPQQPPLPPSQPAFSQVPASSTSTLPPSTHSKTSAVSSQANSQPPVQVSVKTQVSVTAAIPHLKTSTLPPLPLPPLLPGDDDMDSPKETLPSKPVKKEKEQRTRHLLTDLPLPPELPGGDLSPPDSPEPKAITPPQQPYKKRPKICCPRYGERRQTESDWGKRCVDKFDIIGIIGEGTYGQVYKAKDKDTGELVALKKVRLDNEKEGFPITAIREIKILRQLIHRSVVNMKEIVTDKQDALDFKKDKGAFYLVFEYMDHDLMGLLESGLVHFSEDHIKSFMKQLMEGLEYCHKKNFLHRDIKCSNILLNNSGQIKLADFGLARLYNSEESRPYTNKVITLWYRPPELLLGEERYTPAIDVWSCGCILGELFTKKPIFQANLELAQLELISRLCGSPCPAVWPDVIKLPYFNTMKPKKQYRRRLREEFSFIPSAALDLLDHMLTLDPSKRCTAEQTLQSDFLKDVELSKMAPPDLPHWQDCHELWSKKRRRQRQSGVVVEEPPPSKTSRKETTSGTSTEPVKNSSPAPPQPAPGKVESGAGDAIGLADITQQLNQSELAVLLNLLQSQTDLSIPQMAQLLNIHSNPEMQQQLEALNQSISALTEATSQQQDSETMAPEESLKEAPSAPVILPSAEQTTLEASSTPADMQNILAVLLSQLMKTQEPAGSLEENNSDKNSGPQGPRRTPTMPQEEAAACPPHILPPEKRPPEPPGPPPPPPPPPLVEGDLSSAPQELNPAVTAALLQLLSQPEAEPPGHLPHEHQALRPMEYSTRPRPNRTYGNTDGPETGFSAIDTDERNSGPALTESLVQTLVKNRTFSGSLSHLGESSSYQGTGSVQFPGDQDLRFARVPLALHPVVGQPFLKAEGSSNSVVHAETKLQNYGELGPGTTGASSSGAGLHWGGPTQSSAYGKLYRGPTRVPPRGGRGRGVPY
T1 sequence (O75909 whole entry partner, species assumed): as the sequence (O75909 whole entry partner, species assumed) above

Consider `FC(F)(F)c1cnc2c(NCc3nc4cc(Cl)c(Cl)cc4s3)cc(N3CCOCC3)nn12` [Example 93, N-((5,6-dichlorobenzo[d]thiazol-2-yl)methyl)-6-morpholino-3-(trifluoromethyl)imidazo[1,2-b]pyridazin-8-amine], for which the IC50 (as a rule, the concentration needed to halve the response being measured) in test [1] was 50 to 500 nM; in test [2] it was 300 to 3000 nM; in test [3], more than 500 nM; in test [4], more than 500 nM.
As to `FC(F)(F)c1cnc2c(NCc3nc4cc(Cl)c(Cl)cc4[nH]3)cc(N3CC4CCC(C3)N4)nn12` [Example 94, 6-(3,8-diazabicyclo[3.2.1]octan-3-yl)-N-((5,6-dichloro-1H-benzo[d]imidazol-2-yl)methyl)-3-(trifluoromethyl)imidazo[1,2-b]pyridazin-8-amine], the IC50 in test [1] was not above 50 nM; in test [2], less than 300 nM; in test [3], less than 100 nM; in test [4] it was less than 100 nM.
As for `FC(F)(F)c1cnc2c(NCc3nc4cc(Cl)c(Cl)cc4[nH]3)cc(N3C4CCC3CNC4)nn12` [Example 95, 6-(3,8-diazabicyclo[3.2.1]octan-8-yl)-N-((5,6-dichloro-1H-benzo[d]imidazol-2-yl)methyl)-3-(trifluoromethyl)imidazo[1,2-b]pyridazin-8-amine], the IC50 in test [1] is not above 50 nM; in test [2], less than 300 nM; in test [3] it was less than 100 nM; in test [4], less than 100 nM.
As for `CN1CC2CCC(C1)N2c1cc(NCc2nc3cc(Cl)c(Cl)cc3[nH]2)c2ncc(C(F)(F)F)n2n1` [Example 96, N-((5,6-dichloro-1H-benzo[d]imidazol-2-yl)methyl)-6-(3-methyl-3,8-diazabicyclo[3.2.1]octan-8-yl)-3-(trifluoromethyl)imidazo[1,2-b]pyridazin-8-amine], the IC50 in test [1] is not above 50 nM; in test [2] it was less than 300 nM; in test [3], 100 to 500 nM; in test [4], less than 100 nM.
On to `FC(F)(F)c1cnc2c(NCc3nc4cc(Cl)c(Cl)cc4[nH]3)cc(N3CC4CC(C3)N4)nn12` [Example 97, 6-(3,6-diazabicyclo[3.1.1]heptan-3-yl)-N-((5,6-dichloro-1H-benzo[d]imidazol-2-yl)methyl)-3-(trifluoromethyl)imidazo[1,2-b]pyridazin-8-amine], for which the IC50 in test [1] was not above 50 nM; in test [2], less than 300 nM; in test [3], less than 100 nM; in test [4] it was less than 100 nM.
For `CN1C2CC1CN(c1cc(NCc3nc4cc(Cl)c(Cl)cc4[nH]3)c3ncc(C(F)(F)F)n3n1)C2` [Example 98, N-((5,6-dichloro-1H-benzo[d]imidazol-2-yl)methyl)-6-(6-methyl-3,6-diazabicyclo[3.1.1]heptan-3-yl)-3-(trifluoromethyl)imidazo[1,2-b]pyridazin-8-amine], the IC50 in test [1] was not above 50 nM; in test [2] it was less than 300 nM; in test [3], less than 100 nM; in test [4], less than 100 nM.
With `FC(F)(F)c1cnc2c(NCc3nc4cc(Cl)c(Cl)cc4[nH]3)cc(N3C4CNCC3C4)nn12` [Example 99, 6-(3,6-diazabicyclo[3.1.1]heptan-6-yl)-N-((5,6-dichloro-1H-benzo[d]imidazol-2-yl)methyl)-3-(trifluoromethyl)imidazo[1,2-b]pyridazin-8-amine], the 50% inhibitory concentration (IC50) in test [1] was not above 50 nM; in test [2] it was less than 300 nM; in test [3] it was 100 to 500 nM; in test [4], 100 to 500 nM.
With `CN1CC2CC(C1)N2c1cc(NCc2nc3cc(Cl)c(Cl)cc3[nH]2)c2ncc(C(F)(F)F)n2n1` [Example 100, N-((5,6-dichloro-1H-benzo[d]imidazol-2-yl)methyl)-6-(3-methyl-3,6-diazabicyclo[3.1.1]heptan-6-yl)-3-(trifluoromethyl)imidazo[1,2-b]pyridazin-8-amine], the IC50 in test [1] was not above 50 nM; in test [2], less than 300 nM; in test [3], less than 100 nM; in test [4] it was less than 100 nM.
Turning to `OC1CC2CCC(C1)N2c1cc(NCc2nc3cc(Cl)c(Cl)cc3[nH]2)c2ncc(C(F)(F)F)n2n1` (stereo not shown) [Example 101, 8-(8-(((5,6-dichloro-1H-benzo[d]imidazol-2-yl)methyl)amino)-3-(trifluoromethyl)imidazo[1,2-b]pyridazin-6-yl)-8-azabicyclo[3.2.1]octan-3-ol], the IC50 in test [1] is not above 50 nM; in test [2], less than 300 nM; in test [3] it was 100 to 500 nM; in test [4], less than 100 nM.
The corresponding values for `O=C(CO)N1CCN(c2cc(NCc3nc4cc(Cl)c(Cl)cc4[nH]3)c3ncc(C(F)(F)F)n3n2)CC1` [Example 102, 1-(4-(8-(((5,6-dichloro-1H-benzo[d]imidazol-2-yl)methyl)amino)-3-(trifluoromethyl)imidazo[1,2-b]pyridazin-6-yl)piperazin-1-yl)-2-hydroxyethan-1-one] are not above 50 nM, less than 300 nM, less than 100 nM and less than 100 nM.
Regarding `O=C(CO)NC1CN(c2cc(NCc3nc4cc(Cl)c(Cl)cc4[nH]3)c3ncc(C(F)(F)F)n3n2)C1` [Example 103, N-(1-(8-(((5,6-dichloro-1H-benzo[d]imidazol-2-yl)methyl)amino)-3-(trifluoromethyl)imidazo[1,2-b]pyridazin-6-yl)azetidin-3-yl)-2-hydroxyacetamide], the IC50 is 50 to 500 nM in test [1], 300 to 3000 nM in test [2], less than 100 nM in test [3] and less than 100 nM in test [4].
For `Fc1cc2nc(CNc3cc(N4CCNCC4)nn4c(C(F)(F)F)cnc34)[nH]c2cc1F` [Example 109], the IC50 in test [1] is not above 50 nM; in test [2], less than 300 nM; in test [3] it was less than 100 nM; in test [4], less than 100 nM.
Consider `CN1CCN(c2cc(NCc3nc4cc(F)c(F)cc4[nH]3)c3ncc(C(F)(F)F)n3n2)CC1` [Example 110, N-((5,6-difluoro-1H-benzo[d]imidazol-2-yl)methyl)-6-(4-methylpiperazin-1-yl)-3-(trifluoromethyl)imidazo[1,2-b]pyridazin-8-amine], for which the IC50 in test [1] was not above 50 nM; in test [2], less than 300 nM; in test [3], less than 100 nM; in test [4], less than 100 nM.
For `NC1CCN(c2cc(NCc3nc4cc(F)c(F)cc4[nH]3)c3ncc(C(F)(F)F)n3n2)CC1` [Example 111, 6-(4-aminopiperidin-1-yl)-N-((5,6-difluoro-1H-benzo[d]imidazol-2-yl)methyl)-3-(trifluoromethyl)imidazo[1,2-b]pyridazin-8-amine], the IC50 in test [1] is not above 50 nM; in test [2], less than 300 nM; in test [3], less than 100 nM; in test [4] it was less than 100 nM.
With `C[C@@H]1CN(c2cc(NCc3nc4cc(F)c(F)cc4[nH]3)c3ncc(C(F)(F)F)n3n2)C[C@H](C)N1` [Example 112, N-((5,6-difluoro-1H-benzo[d]imidazol-2-yl)methyl)-6-((3S, 5R)-3,5-dimethylpiperazin-1-yl)-3-(trifluoromethyl)imidazo[1,2-b]pyridazin-8-amine], the half-maximal inhibitory concentration (IC50) was not above 50 nM in test [1], less than 300 nM in test [2], less than 100 nM in test [3] and less than 100 nM in test [4].
For `Nc1ncc(-c2cc(NCc3nc4cc(F)c(F)cc4[nH]3)c3ncc(C(F)(F)F)n3n2)cn1` [Example 113, 6-(2-aminopyrimidin-5-yl)-N-((5,6-difluoro-1H-benzo[d]imidazol-2-yl)methyl)-3-(trifluoromethyl)imidazo[1,2-b]pyridazin-8-amine], the IC50 in test [1] was not above 50 nM; in test [2], less than 300 nM; in test [3] it was less than 100 nM; in test [4] it was less than 100 nM.
